Values of other authors in US8889745B2 (Nanunanu Ltd., priority 2006, dated 2014).
≈ marks a conversion by molar mass, not a printed value.

SMILES: C[C@@H]1C[C@H]2[C@@H]3CCC4=CC(=O)C=C[C@]4(C)[C@@]3(F)[C@@H](O)C[C@]2(C)[C@@]1(O)C(=O)CO [dexamethasone]
- aqueous solubility: 88 µg/mL (≈ 224 µM)
